# Bridge positions count the residues as written; N and C are the ends. Side chains are listed from the residue outwards. Peptide text beside a SMILES is read from it. I, II: the chains in the order shown.
# Key:
# [1] = in vivo
# [2] = Body weight, spleen weight and tolerability in Kunming mice with transplanted H22 tumor; conditions: for Weight of spleen / Average weight (X ± S, g) End / Average weight (X ± S, g) Start: 2 mg/kg, ip × 5; for Weight of spleen: end of test; for Average weight (X ± S, g) End: End of test; for Average weight (X ± S, g) Start: Start of test
# [3] = The 3rd day after administration, 2 mg/kg ip
# [4] = The 5th day after administration, 2 mg/kg ip
# [5] = The 7th day after administration, 2 mg/kg ip
# [6] = The 9th day after administration, 2 mg/kg ip
# [7] = The 11th day after administration, 2 mg/kg ip
Compound,Abnormity or side effect in test chickens [1],Weight of spleen [2],"Average weight (X ± S, g) End [2]","Average weight (X ± S, g) Start [2]","Body weight/g [2, 3]","Body weight/g [2, 4]","Body weight/g [2, 5]","Body weight/g [2, 6]","Body weight/g [2, 7]",Body weight/g ([2]; The day without administration),"Body weight growth compared with the blank control group ([2]; 2 mg/kg ip, test duration)","Death / acute toxicity in tumor-bearing mice ([2]; 2 mg/kg ip, test duration)","Side effect in tumor-bearing mice ([2]; 2 mg/kg ip, test duration)"
C[C@@H](O)[C@H](N)C(=O)N[C@@H](CCCCN)C(=O)N1CCC[C@H]1C(=O)N[C@@H](CCCNC(=N)N)C(=O)NCCCC[C@H](NC(=O)[C@H](CCCNC(=N)N)NC(=O)[C@@H]1CCCN1C(=O)[C@H](CCCCN)NC(=O)[C@@H](N)[C@@H](C)O)C(=O)NCCCC[C@H](NC(=O)[C@H](CCCCNC(=O)[C@H](CCCNC(=N)N)NC(=O)[C@@H]1CCCN1C(=O)[C@H](CCCCN)NC(=O)[C@@H](N)[C@@H](C)O)NC(=O)[C@H](CCCNC(=N)N)NC(=O)[C@@H]1CCCN1C(=O)[C@H](CCCCN)NC(=O)[C@@H](N)[C@@H](C)O)C(=O)N[C@H](C(=O)N[C@@H](CCCCN)C(=O)N1CCC[C@H]1C(=O)N[C@@H](CCCNC(=N)N)C(=O)O)[C@@H](C)O [(TKPR)4>K2>K-TKPR] (I: H-TKPRK([Arg-Pro-Lys-Thr])KTKPR-OH / II: H-TKPRK([Arg-Pro-Lys-Thr]); amide I:6-II:C),no abnormity or side effect,–,–,–,–,–,–,–,–,–,–,–,–
"C[C@@H](O)[C@H](N)C(=O)N[C@@H](CCCCN)C(=O)N1CCC[C@H]1C(=O)N[C@@H](CCCNC(=N)N)C(=O)O [TKPR, Thr-Lys-Pro-Arg, reference compound] (H-TKPR-OH)",–,0.32 ± 0.09 g,29.6 ± 1.7 g,15.2 ± 0.7 g,18.9 ± 0.7 g,21.5 ± 1.1 g,24.4 ± 1.3 g,27.0 ± 1.5 g,29.6 ± 1.7 g,15.2 ± 0.7 g,–,–,–
C[C@@H](O)[C@H](N)C(=O)N[C@@H](CCCCN)C(=O)N1CCC[C@H]1C(=O)N[C@@H](CCCNC(=N)N)C(=O)NCCCC[C@H](NC(=O)[C@H](CCCNC(=N)N)NC(=O)[C@@H]1CCCN1C(=O)[C@H](CCCCN)NC(=O)[C@@H](N)[C@@H](C)O)C(=O)NCCCC[C@H](NC(=O)[C@H](CCCCNC(=O)[C@H](CCCNC(=N)N)NC(=O)[C@@H]1CCCN1C(=O)[C@H](CCCCN)NC(=O)[C@@H](N)[C@@H](C)O)NC(=O)[C@H](CCCNC(=N)N)NC(=O)[C@@H]1CCCN1C(=O)[C@H](CCCCN)NC(=O)[C@@H](N)[C@@H](C)O)C(=O)NCC(=O)O [(TKPR)4>K2>K-G] (I: H-TKPRK([Arg-Pro-Lys-Thr])KG-OH / II: H-TKPRK([Arg-Pro-Lys-Thr]); amide I:6-II:C),no abnormity or side effect,0.31 ± 0.08 g,30.6 ± 3.2 g,14.8 ± 0.8 g,19.6 ± 0.8 g,23.3 ± 1.0 g,26.2 ± 1.9 g,28.5 ± 2.5 g,30.6 ± 3.2 g,14.8 ± 0.8 g,the same as that of the blank control group,no acute toxicity reactions occurred,no obvious side effect
"C[C@@H](O)[C@H](N)C(=O)N[C@@H](CCCCN)C(=O)N1CCC[C@H]1C(=O)N[C@@H](CCCNC(=N)N)C(=O)NCCCC[C@H](NC(=O)[C@H](CCCNC(=N)N)NC(=O)[C@@H]1CCCN1C(=O)[C@H](CCCCN)NC(=O)[C@@H](N)[C@@H](C)O)C(=O)NCCCC[C@H](NC(=O)[C@H](CCCCNC(=O)[C@H](CCCNC(=N)N)NC(=O)[C@@H]1CCCN1C(=O)[C@H](CCCCN)NC(=O)[C@@H](N)[C@@H](C)O)NC(=O)[C@H](CCCNC(=N)N)NC(=O)[C@@H]1CCCN1C(=O)[C@H](CCCCN)NC(=O)[C@@H](N)[C@@H](C)O)C(=O)O [(TKPR)4>K2>K, reference compound] (I: H-TKPRK([Arg-Pro-Lys-Thr])K-OH / II: H-TKPRK([Arg-Pro-Lys-Thr]); amide I:6-II:C)",no abnormity or side effect,–,–,–,–,–,–,–,–,–,–,–,–

# From US20120015887A1, “SYNTHETIC PEPTIDE AND USES THEREOF” (priority 2009, published 2012)
